# Assays:
# [1] = target: Aldo-keto reductase family 1 member B1 (Bos taurus, UniProt P16116); experiment: Inhibition of bovine aldose reductase
# [2] = target: Aldo-keto reductase family 1 member B1 (Bos taurus) (UniProt P16116); experiment: Inhibition of bovine aldose reductase at 12.5 uM
Structure (SMILES),IC50 [1] [nM],inhibition [2] [%]
O=C(O)COc1cccc(/C=C2\SC(=O)N(CC(=O)O)C2=O)c1,230,–
COc1cc(/C=C2\SC(=O)N(CC(=O)O)C2=O)ccc1O,700,–
O=C(O)COc1ccc(/C=C2\SC(=O)N(CC(=O)O)C2=O)cc1,600,–
COc1cc(/C=C2\SC(=O)N(CC(=O)O)C2=O)ccc1OCC(=O)O,260,–
COc1ccc(/C=C2\SC(=O)N(CC(=O)O)C2=O)cc1O,560,–
COc1ccc(/C=C2\SC(=O)NC2=O)cc1O,–,33
COc1cc(/C=C2\SC(=O)NC2=O)ccc1O,11800,–
